Data taken from PubChem BioAssay AID328 (DTP/NCI, 2004).
Where “and” joins values, the source holds several entries; their conditions need not be identical. Identical values can stand only once. Inconclusive results and toxic doses are left out. The calls were made as follows: active = survival T/C of 150% or more; inactive = T/C below 125% in these data.

Tested on: BDF1 mice, P388 leukemia ip, median survival T/C
Assay: NCI In Vivo Anticancer Drug Screen. Data for tumor model P388 Leukemia (intraperitoneal) in B6D2F1 (BDF1) mice
Conditions: endpoint: median survival time, higher = longer survival
In short: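 Steps: implant the tumour, treat one group with compound and another with vehicle, record survival, then divide treated by control.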

[1] = dose: 100.0 mg/kg/injection, schedule: Q04DX002 (ip), vehicle: saline with Tween-80
[2] = dose: 100.0 mg/kg/injection, schedule: Q01DX009 (ip), vehicle: water
[3] = dose: 200.0 mg/kg/injection, schedule: Q01DX009 (ip), vehicle: water
[4] = dose: 100.0 mg/kg/injection, schedule: Q01DX009 (ip), vehicle: saline with Tween-80
[5] = dose: 100.0 mg/kg/injection, schedule: Q04DX003 (ip), vehicle: saline with Tween-80
[6] = dose: 200.0 mg/kg/injection, schedule: Q01DX009 (ip), vehicle: saline with Tween-80
[7] = dose: 200.0 mg/kg/injection, schedule: Q04DX003 (ip), vehicle: saline with Tween-80
[8] = dose: 400.0 mg/kg/injection, schedule: Q01DX009 (ip), vehicle: saline with Tween-80
[9] = dose: 400.0 mg/kg/injection, schedule: Q04DX003 (ip), vehicle: saline with Tween-80
[10] = dose: 6.25 mg/kg/injection, schedule: Q04DX003 (ip), vehicle: saline with Tween-80
[11] = dose: 12.5 mg/kg/injection, schedule: Q04DX003 (ip), vehicle: saline with Tween-80
[12] = dose: 25.0 mg/kg/injection, schedule: Q04DX003 (ip), vehicle: saline with Tween-80
[13] = dose: 25.0 mg/kg/injection, schedule: Q01DX009 (ip), vehicle: Klucel (hydroxypropylcellulose) (HPC)
[14] = dose: 50.0 mg/kg/injection, schedule: Q01DX009 (ip), vehicle: Klucel (hydroxypropylcellulose) (HPC)
[15] = dose: 100.0 mg/kg/injection, schedule: Q01DX009 (ip), vehicle: Klucel (hydroxypropylcellulose) (HPC)
[16] = dose: 200.0 mg/kg/injection, schedule: Q01DX009 (ip), vehicle: Klucel (hydroxypropylcellulose) (HPC)
[17] = dose: 100.0 mg/kg/injection, schedule: Q04DX003 (ip), vehicle: saline sonified
[18] = dose: 200.0 mg/kg/injection, schedule: Q04DX003 (ip), vehicle: saline sonified

Measured: T/C

CC(=O)NC1=C(N2CC2C)C(=O)C(NC(C)=O)=C(N2CC2C)C1=O (stereo not drawn)
inactive: dose: 0.62 mg/kg/injection, schedule: Q01DX009 (ip), vehicle: saline 119 % of control | dose: 1.25 mg/kg/injection, schedule: Q01DX009 (ip), vehicle: saline 114 % of control and 115 % of control | dose: 4.4 mg/kg/injection, schedule: Q04DX003 (ip), vehicle: saline 118 % of control | dose: 6.6 mg/kg/injection, schedule: Q04DX003 (ip), vehicle: saline 104 % of control | dose: 18.7 mg/kg/injection, schedule: Q01DX009 (ip), vehicle: saline 90 % of control | dose: 50.0 mg/kg/injection, schedule: Q04DX003 (ip), vehicle: saline 86 % of control and 100 % of control
255 % of control and 110 % of control: dose: 25.0 mg/kg/injection, schedule: Q04DX003 (ip), vehicle: saline
active: dose: 5.0 mg/kg/injection, schedule: Q01DX009 (ip), vehicle: saline 233 % of control and 215 % of control | dose: 5.56 mg/kg/injection, schedule: Q01DX009 (ip), vehicle: saline 159 % of control | dose: 8.33 mg/kg/injection, schedule: Q01DX009 (ip), vehicle: saline 236 % of control | dose: 11.0 mg/kg/injection, schedule: Q04DX003 (ip), vehicle: saline 166 % of control and 215 % of control | dose: 12.5 mg/kg/injection, schedule: Q01DX009 (ip), vehicle: saline 163 % of control | dose: 15.0 mg/kg/injection, schedule: Q04DX003 (ip), vehicle: saline 163 % of control | dose: 16.5 mg/kg/injection, schedule: Q04DX003 (ip), vehicle: saline 230 % of control and 222 % of control | dose: 37.5 mg/kg/injection, schedule: Q04DX003 (ip), vehicle: saline 183 % of control

COCn1cc(C(N)=O)c(=O)c2c(N)nc(SC)nc21
inactive: [1] 90 % of control | dose: 400.0 mg/kg/injection, schedule: Q04DX002 (ip), vehicle: saline with Tween-80 96 % of control

Cc1nc(N)cc(=O)[nH]1
inactive: [2] 105 % of control | [3] 110 % of control | dose: 400.0 mg/kg/injection, schedule: Q01DX009 (ip), vehicle: water 95 % of control

CCOC(=O)c1cnn(C(N)=O)c1N
inactive: [4] 115 % of control | [5] 110 % of control | [6] 90 % of control | [7] 115 % of control | [8] 109 % of control and 115 % of control | [9] 115 % of control

CCCCOc1cc(C(=O)NCCN(CC)CC)c2ccccc2n1
inactive: [10] 100 % of control | [11] 109 % of control | [12] 109 % of control

Cn1ccc(=O)c2cc([N+](=O)[O-])ccc21
inactive: dose: 12.5 mg/kg/injection, schedule: Q01DX009 (ip), vehicle: water 94 % of control | dose: 25.0 mg/kg/injection, schedule: Q01DX009 (ip), vehicle: water 111 % of control | dose: 25.0 mg/kg/injection, schedule: Q04DX003 (ip), vehicle: water 102 % of control | dose: 50.0 mg/kg/injection, schedule: Q01DX009 (ip), vehicle: water 93 % of control | dose: 50.0 mg/kg/injection, schedule: Q04DX003 (ip), vehicle: water 100 % of control | [2] 94 % of control | dose: 100.0 mg/kg/injection, schedule: Q04DX003 (ip), vehicle: water 109 % of control | [3] 93 % of control | dose: 200.0 mg/kg/injection, schedule: Q04DX003 (ip), vehicle: water 92 % of control | dose: 300.0 mg/kg/injection, schedule: Q01DX009 (ip), vehicle: water 113 % of control

CN(C)N=Nc1ccccc1Cl
active: [4] 157 % of control
inactive: dose: 25.0 mg/kg/injection, schedule: Q01DX009 (ip), vehicle: saline with Tween-80 119 % of control

CC(C)Sc1nc(N)nc2nc[nH]c12
inactive: dose: 6.25 mg/kg/injection, schedule: Q01DX009 (ip), vehicle: Klucel (hydroxypropylcellulose) (HPC) 100 % of control | dose: 12.5 mg/kg/injection, schedule: Q01DX009 (ip), vehicle: Klucel (hydroxypropylcellulose) (HPC) 105 % of control | [13] 100 % of control | [14] 100 % of control | dose: 100.0 mg/kg/injection, schedule: Q04DX003 (ip), vehicle: Klucel (hydroxypropylcellulose) (HPC) 105 % of control | dose: 200.0 mg/kg/injection, schedule: Q04DX003 (ip), vehicle: Klucel (hydroxypropylcellulose) (HPC) 105 % of control

COC(=S)SCN(CSC(=S)OC)c1ccccc1Cl
inactive: [4] 118 % of control
active: [8] 159 % of control | dose: 600.0 mg/kg/injection, schedule: Q01DX009 (ip), vehicle: saline with Tween-80 158 % of control

C1=CC2C3CC(OCCOC4CC5CC4C4CC=CC54)C(C3)C2C1 (stereo not drawn)
inactive: [5] 115 % of control | [7] 115 % of control | [9] 120 % of control

CCCCN(CCCC)CC(O)c1c2cccc(Cl)c2cc2c(Cl)cccc12 (stereo not drawn)
inactive: dose: 50.0 mg/kg/injection, schedule: Q01DX009 (ip), vehicle: saline with Tween-80 107 % of control | [4] 102 % of control | [6] 123 % of control

CCCCCCCCCCCSCCCCCCCCCCC
inactive: [4] 100 % of control | [6] 100 % of control | [8] 100 % of control

Cc1ccc(S(=O)(=O)N(CCO)CC(C)O)cc1 (stereo not drawn)
inactive: [15] 100 % of control | [16] 100 % of control | dose: 400.0 mg/kg/injection, schedule: Q01DX009 (ip), vehicle: Klucel (hydroxypropylcellulose) (HPC) 100 % of control

CCCn1/c(=N\N=O)sc2ccccc21
inactive: dose: 50.0 mg/kg/injection, schedule: Q04DX003 (ip), vehicle: saline sonified 100 % of control | [17] 100 % of control | [18] 95 % of control

CCCOC(=O)/C=C(\Br)C(=O)OCCC
inactive: [11] 108 % of control | [12] 110 % of control | dose: 50.0 mg/kg/injection, schedule: Q04DX003 (ip), vehicle: saline with Tween-80 95 % of control

Cc1ccccc1N=C(N)Nc1ccccc1C
inactive: [10] 105 % of control | [11] 94 % of control | [12] 100 % of control

O=NN(CCCl)C(=O)NCC1CCC(CNC(=O)N(CCCl)N=O)CC1 (stereo not drawn)
active: [13] 154 % of control | dose: 26.4 mg/kg/injection, schedule: Q01DX009 (ip), vehicle: other 154 % of control | dose: 40.0 mg/kg/injection, schedule: Q01DX009 (ip), vehicle: other 159 % of control | dose: 44.0 mg/kg/injection, schedule: Q01DX009 (ip), vehicle: other 227 % of control | dose: 66.0 mg/kg/injection, schedule: Q01DX009 (ip), vehicle: other 240 % of control | dose: 66.0 mg/kg/injection, schedule: Q04DX003 (ip), vehicle: saline sonified 170 % of control | [15] 169 % of control | dose: 100.0 mg/kg/injection, schedule: Q01DX009 (ip), vehicle: other 272 % of control and 300 % of control | [17] 175 % of control and 185 % of control | dose: 150.0 mg/kg/injection, schedule: Q01DX009 (ip), vehicle: other 245 % of control | dose: 150.0 mg/kg/injection, schedule: Q04DX003 (ip), vehicle: saline sonified 180 % of control | [16] 176 % of control | [18] 240 % of control
inactive: dose: 3.13 mg/kg/injection, schedule: Q01DX009 (ip), vehicle: other 113 % of control | dose: 6.25 mg/kg/injection, schedule: Q01DX009 (ip), vehicle: other 122 % of control | dose: 12.5 mg/kg/injection, schedule: Q01DX009 (ip), vehicle: other 116 % of control | [14] 115 % of control

Cn1c(-c2ccccc2)c2c(c1-c1ccccc1)CCCC2
inactive: [1] 88 % of control | dose: 200.0 mg/kg/injection, schedule: Q04DX002 (ip), vehicle: saline with Tween-80 87 % of control

CC(=O)c1ccc(F)c(C)c1
inactive: dose: 100.0 mg/kg/injection, schedule: Q01DX001 (ip), vehicle: saline sonified 105 % of control | dose: 200.0 mg/kg/injection, schedule: Q01DX001 (ip), vehicle: saline sonified 110 % of control | dose: 400.0 mg/kg/injection, schedule: Q01DX001 (ip), vehicle: saline sonified 105 % of control
